In ChEMBL document CHEMBL5608215, “Development of amphipathic derivatives of thymol and carvacrol as potent broad-spectrum antibacterial agents” (Eur J Med Chem, 2024):
Converted amounts (≈) assume the structure as drawn. The source made the active and inactive calls. No cut-off for these calls is given here.

Assays:
[1] = system: Escherichia coli; experiment: Antibacterial activity against Escherichia coli ATCC25922 by CLSI based serial dilution method; assay type: functional
[2] = system: Pseudomonas aeruginosa; experiment: Anti-biofilm activity against Pseudomonas aeruginosa ATCC27853 assessed as biofilm formation rate at 8 times MIC incubated for 48 hrs by crystal violet staining based analysis relative to control; assay type: functional
[3] = system: Staphylococcus aureus; experiment: Bactericidal activity against Staphylococcus aureus ATCC29213 at MIC incubated for 24 hrs by time-kill assay; assay type: functional, organism-based
[4] = system: Staphylococcus aureus; experiment: Antibacterial activity against methicillin-resistant Staphylococcus aureus 21-5 by CLSI based serial dilution method; assay type: functional
[5] = system: Pseudomonas aeruginosa; experiment: Antibacterial activity against Pseudomonas aeruginosa ATCC27853 by CLSI based serial dilution method; assay type: functional
[6] = system: Escherichia coli; experiment: Bactericidal activity against Escherichia coli ATCC25922 incubated upto 24 hrs by time-kill assay; assay type: functional, organism-based
[7] = system: Staphylococcus aureus; experiment: Bactericidal activity against Staphylococcus aureus ATCC29213 assessed as log reduction in bacterial growth at 8 times MIC incubated for 24 hrs by time-kill assay; assay type: functional
[8] = system: Staphylococcus aureus; experiment: Inhibition of antibiotic-resistance in Staphylococcus aureus ATCC29213 at 0.5 times of MIC incubated for 20 days; assay type: functional; conditions: time 20.0 day
[9] = system: Staphylococcus aureus; experiment: Antibacterial activity against Staphylococcus aureus ATCC29213 by CLSI based serial dilution method; assay type: functional
[10] = system: Staphylococcus aureus; experiment: Bactericidal activity against Staphylococcus aureus ATCC29213 at 8 times MIC incubated for 24 hrs by time-kill assay relative to control; assay type: functional
[11] = system: Escherichia coli; experiment: Bactericidal activity against Escherichia coli ATCC25922 at MIC incubated for 24 hrs by time-kill assay; assay type: functional, organism-based
[12] = system: Escherichia coli; experiment: Bactericidal activity against Escherichia coli ATCC25922 at 8 times MIC incubated for 12 hrs by time-kill assay relative to control; assay type: functional
[13] = system: Escherichia coli; experiment: Bactericidal activity against Escherichia coli ATCC25922 assessed as inhibition of bacterial regrowth at 8 times MIC incubated for 24 hrs by time-kill assay; assay type: functional, organism-based
[14] = system: Staphylococcus aureus; experiment: Bactericidal activity against Staphylococcus aureus ATCC29213 incubated upto 24 hrs by time-kill assay; assay type: functional, organism-based
[15] = system: Enterococcus; experiment: Antibacterial activity against vancomycin-resistant Enterococcus ATCC51299 by CLSI based serial dilution method; assay type: functional
[16] = system: Enterococcus faecalis; experiment: Antibacterial activity against Enterococcus faecalis ATCC29212 by CLSI based serial dilution method; assay type: functional
[17] = system: Staphylococcus aureus; experiment: Antibacterial activity against Staphylococcus aureus ATCC29213 infected in mouse model assessed as bacterial load in abscesses at 5 mg/kg, sc measured after 24 hrs; assay type: functional
[18] = system: Staphylococcus aureus; experiment: Antibacterial activity against Staphylococcus aureus ATCC29213 infected in mouse model assessed as normalization of skin cell morphology at 5 mg/kg, sc measured after 24 hrs by H and E staining based analysis; assay type: functional, organism-based
[19] = system: Staphylococcus aureus; experiment: Antibacterial activity against Staphylococcus aureus ATCC29213 infected in mouse model assessed as reduction in inflammatory factors in skin at 5 mg/kg, sc measured after 24 hrs by H and E staining based analysis; assay type: functional, organism-based

Structure (SMILES)	MIC [1]	Activity [2]	Activity [3]	MIC [4]	MIC [5]	Activity [6]	Activity [7]	inhibition [8]	MIC [9]	Activity [10]	Activity [11]	Activity [12]	inhibition [13]	Activity [14]	MIC [15]	MIC [16]	Activity [17]	Activity [18]	Activity [19]
CCCCCCN(CCCCCC)C(=O)C[N+](C)(C)CCCCOc1cc(C(C)C)ccc1C.[Br-]	4 µg/mL	55.3%	inactive	8 µg/mL	8 µg/mL	Dose-Dependent Effect	>3 log10CFU/ml	Active	0.5 µg/mL	>99.9%	inactive	100%	Active	Dose-Dependent Effect	0.5 µg/mL	0.125 µg/mL	–	–	–
CN[C@H](CC(C)C)C(=O)N[C@H]1C(=O)N[C@@H](CC(N)=O)C(=O)N[C@H]2C(=O)N[C@H]3C(=O)N[C@H](C(=O)N[C@H](C(=O)O)c4cc(O)cc(O)c4-c4cc3ccc4O)[C@H](O)c3ccc(c(Cl)c3)Oc3cc2cc(c3O[C@@H]2O[C@H](CO)[C@@H](O)[C@H](O)[C@H]2O[C@H]2C[C@](C)(N)[C@H](O)[C@H](C)O2)Oc2ccc(cc2Cl)[C@H]1O [VANCOMYCIN]	128 µg/mL (≈ 88.3 µM)	–	–	–	> 128 µg/mL	–	–	–	–	–	–	–	–	–	> 128 µg/mL	2 µg/mL (≈ 1.38 µM)	3.2 log10CFU/g	Active	Active
